Laboratory results: publication PMC4527730, “A Pan-GTPase Inhibitor as a Molecular Probe” (PLoS ONE, 2015)

What was measured:
Stability in PBS = format: physicochemical; settings: 23 °C, after 48 hours
Experimental: page 7: conclusion, the available data support the idea that compound CID1067700 has non-classical competitive character. […] Solubility was measured in phosphate buffered saline (PBS) at room temperature (23 °C). PBS by definition is 137 mM NaCl, 2.7 mM KCl, 10 mM sodium phosphate dibasic, 2 mM potassium phosphate [monobasic and a pH of 7.4. Detection was based on UV absorbance. […] Solubility was also assessed in the each of the four media used in the individual assays. […] Table 1S. […] Stability, depicted as closed circles in the graph, was assessed at room temperature (23 °C) in PBS (no antioxidants or other protectants and DMSO concentration below 0.1%). Stability data is depicted in Fig. S8 showing the loss of compound with time over a 48 h period with a minimum of 6 time points and providing the percent remaining compound at end of the 48 h period. Under these conditions, 77% of 1 remains after 48 hours. The degradation has not been further characterized.

[1] = test system: GTPases (H-Ras, H-Ras G12V, Cdc42, Cdc42 Q61L, Rac1, Rac1 Q61L, RhoA, Rab7); assay: Multiplex dose-response assay, statements across the GTPase panel
Experimental: Briefly, individual GST-GTPases were separately attached to glutathione microsphere beads that were labeled with varying intensity of red fluorescent dye, and subsequently combined. The buffer contains 30 mM HEPES (pH 7.2), 150 mM KCl, 20 mM NaCl, 0.1% BSA, 1 mM DTT, 1 mM EDTA and 0.1% NP-40. For Rho A and Rac1, 1 mM EDTA was replaced with 1 mM MgCl2 to stabilize the protein. […] To study whether the compounds are slow binders, BODIPY^- FL GTP was added either immediately or 2 h after compound addition. […] The curves were fitted to the sigmoidal dose-response equation using GraphPad Prism. Percent response was calculated as the ratio of (sample MCF–negative control MCF) / (positive control MCF–negative control MCF).

Ras = assay: GTPase and effector interaction assay (Raf1-RBD beads), HeLa cell lysates; settings: HeLa cells, 10 μM, 2 h, EGF 10 ng/mL 2 min
Experimental: GST effector chimeras consisting of the minimal GTPase binding domain were p21-activated kinase p21 binding domain (PAK-PBD) for Cdc42, Raf1 Ras-binding domain (Raf1-RBD) for Ras, and Rab-interacting lysosomal protein (RILP) for Rab7 binding measurements.
Superdex peptide beads (13 μm, from GE Healthcare) derivatized with GSH were coated with effector proteins to saturation. […] The effector-coated glutathione beads (20,000 beads/assay) were incubated with 200 μL cell lysate from a single treated well for 1 h at 4°C. […] The bead associated fluorescence representing bound GTPase was quantified on an Accuri C6 flow cytometer.

Cdc42 Q61L = Cdc42 Q61L (Homo sapiens, UniProt P60953, Q61L); assay: Multiplex bead-based flow cytometry dose-response of fluorescent guanine nucleotide binding; settings: EC50 Cdc42 Q61L
Cdc42 Q61L, sequence (P60953 whole entry Q61L): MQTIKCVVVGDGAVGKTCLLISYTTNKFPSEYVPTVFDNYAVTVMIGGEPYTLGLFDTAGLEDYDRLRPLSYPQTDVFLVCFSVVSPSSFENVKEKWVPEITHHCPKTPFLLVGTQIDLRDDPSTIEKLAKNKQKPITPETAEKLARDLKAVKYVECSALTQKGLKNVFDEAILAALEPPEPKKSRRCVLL
Experimental: (§1) Briefly, individual GST-GTPases were separately attached to glutathione microsphere beads that were labeled with varying intensity of red fluorescent dye, and subsequently combined. The buffer contains 30 mM HEPES (pH 7.2), 150 mM KCl, 20 mM NaCl, 0.1% BSA, 1 mM DTT, 1 mM EDTA and 0.1% NP-40. […] To study whether the compounds are slow binders, BODIPY^- FL GTP was added either immediately or 2 h after compound addition. […] The curves were fitted to the sigmoidal dose-response equation using GraphPad Prism. Percent response was calculated as the ratio of (sample MCF–negative control MCF) / (positive control MCF–negative control MCF).

H-Ras G12V = H-Ras G12V (Homo sapiens, UniProt P01112, G12V); assay: as above; settings: EC50 H-Ras G12V
H-Ras G12V, sequence (P01112 whole entry G12V): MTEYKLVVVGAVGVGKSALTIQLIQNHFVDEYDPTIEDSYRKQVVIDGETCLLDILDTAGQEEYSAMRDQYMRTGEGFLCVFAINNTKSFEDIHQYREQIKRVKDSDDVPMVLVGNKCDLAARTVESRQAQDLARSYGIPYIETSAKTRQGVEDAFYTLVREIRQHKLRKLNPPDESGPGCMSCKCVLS
Experimental: as §1

[2] = test system: EGFR degradation regulated by Rab GTPases, SCC-12F cells; assay: EGFR degradation in SCC-12F cells; format: cell-based; settings: EGF 20 nM, 0-120 min, versus DMSO
Experimental: SCC-12F cells were seeded in 12-well plates at 0.12 x 10^6 cells/well and allowed to attach overnight. On the day of the experiment, the cells were starved in serum free medium containing 25 μg/mL cycloheximide for 2 h before compounds at different concentrations were added. The cells were treated with compound or DMSO for 0.5 h followed by the addition of ligand EGF at 20 nM. At time 0, 15, 30, 60, and 120 min, the suspension medium was removed and the cells were quickly washed with cold PBS and frozen at -80°C. For electrophoresis and blotting, CellLyticM Cell Lysis buffer containing protease inhibitor cocktails was added to the frozen cells and the protein concentrations were quantified using the Bradford assay. For SDS-PAGE, 10 μg of protein was loaded on each lane. After transblotting, the nitrocellulose membrane was probed with Anti-EGFR and Anti-actin primary antibody and secondary goat anti-rabbit IgG antibody with conjugated peroxidase. Actin served as a loading control. After adding the substrate SuperSignal West Dura, specific band signal was detected with ChemiDoc XRS+ molecular imager and the intensity was quantified using Image Lab software. Experiments were carried out either in duplicate and repeated or in triplicate. Results are given as the ratios of EGFR/actin at time t and EGFR/actin at time 0.

RhoA = RhoA (Homo sapiens, UniProt P61586); assay: Multiplex bead-based flow cytometry dose-response of fluorescent guanine nucleotide binding; settings: EC50 RhoA
RhoA, sequence (P61586 whole entry): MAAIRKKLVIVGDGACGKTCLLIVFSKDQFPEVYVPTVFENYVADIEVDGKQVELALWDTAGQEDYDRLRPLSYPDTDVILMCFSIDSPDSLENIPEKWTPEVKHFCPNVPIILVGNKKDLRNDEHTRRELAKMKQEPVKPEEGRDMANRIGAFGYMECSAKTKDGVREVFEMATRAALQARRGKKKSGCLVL

Rac1 Q61L = Rac1 Q61L (Homo sapiens, UniProt P63000, Q61L); assay: as above; settings: EC50 Rac1 Q61L
[3] = test system: EGFR degradation, HeLa cells overexpressing Rab7 wild type; assay: EGFR degradation in Rab7 overexpressing HeLa cells; format: cell-based; settings: HeLa cells overexpressing Rab7, 100 μM, 3 h, 0-180 min
Experimental: The EGFR degradation assay in HeLa cells was carried out in a similar way to that in SCC-12F cells but with modifications. […] Cell lysates were prepared at various time points and immunoblotted for total EGFR while actin served as a loading control. Experiments were carried out in triplicate.

[4] = BODIPY-FL GTP binding, 2 h at 4°C
[5] = concentration dependence on BODIPY-FL GDP

CC1(C)Cc2c(sc(NC(=S)NC(=O)c3ccccc3)c2C(=O)O)CO1 [Compound 1]
compound remaining (Stability in PBS): 77%
inhibitory activity on BODIPY-FL GTP binding across all GTPases tested (in words) ([1]; SAR versus compound 1): inhibited BODIPY^- FL GTP binding to all the GTPases tested in a dose-dependent manner
slow binding behaviour ([1]; two-hour incubation or no incubation before BODIPY-FL GTP): not a slow binder
level of active Ras after EGF stimulation (Ras): dramatically blunted
EC50 (Cdc42 Q61L; [4]): 47 ± 38 nM
EC50 (Cdc42 Q61L; [5]): 350 nM
EC50 (H-Ras G12V; [4]): 52 ± 44 nM
EC50 (H-Ras G12V; [5]): 260 nM
EGFR degradation [2]: delayed EGFR degradation
EC50 (RhoA; BODIPY-FL GTP binding, 2 h at 4°C, 1 mM MgCl2): 62 ± 49 nM
EC50 (RhoA; [5]): 100 nM
EC50 (Rac1 Q61L; [4]): 75 ± 59 nM
EC50 (Rac1 Q61L; [5]): 120 nM
EGFR degradation [3]: delayed EGFR degradation
